# System: α-amylase synthesis in tobacco protoplasts
# Assay: Transient expression in tobacco protoplasts (pNL200), α-amylase activity
# Format: cell-based, Nicotiana tabacum
# Conditions: tunicamycin 20 μg/mL, 20 hr
# Text: We have established a model system based on the comparison of protein biosynthesis in the cytosol and on the rough ER using transient expression. A plasmid was constructed (pNL200, FIG. 12A) containing two genes, one encoding the secreted barley α-amylase (Rogers, 1985) and the other encoding the cytosolic marker β-glucuronidase (GUS; Jefferson et al., 1987). α-Amylase was used to measure secretory protein biosynthesis, and GUS was used to control for transfection efficiency and overall cell viability. We compared cells under normal culture conditions with cells subjected to ER stress by treatment with tunicamycin. […] Since α-amylase is not glycosylated, tunicamycin should not have a direct effect on this protein. The tunicamycin effect is protein-specific and not dependent on the promoter used. […]
# Tobacco leaf protoplasts (from transformed or untransformed plants) were prepared, and electroporation experiments were performed as previously described (Denecke and Vitale, 1995), with minor modifications to the electroporation conditions. […] After 24 or 48 hr, the protoplasts were analysed by enzymatic assay or by protein gel blotting. […]
# α-Amylase activity was measured with a kit (Megazyme, Australia). […] The absorbance was measured at a wavelength of 405 nm, with a microtiter plate reader against a blank containing stop buffer alone. […]
substance,measurement,value
tunicamycin,total α-amylase activity in the cell suspension,greatly reduced

# — patent US20060117411A1, “Enhancing plant pathogen resistance via increasing BiP levels” (priority 1998, published 2006)
